Reference: patent US20030095982A1, “Fraction of Cordyceps sinensis and method of isolation thereof” (priority 2001, published 2003)

Key:
[1] = system: ovalbumin (OA) induced bronchial hyperresponsiveness; assay: Pulmonary function test, OA sensitized and challenged BALBc mice; type: in vivo
Protocol: In the nonanesthetized condition, 24 hours after airway challenge by 3 mL 1% OA aerosol, pulmonary function testing (PET) was measured by WBP at baseline and after methacholine (Mch) inhalation challenge. Four hours after PET in a nonanesthetized condition, all animals were anesthetized with sodium pentobarbitone (50 mg/kg intraperitoneally). Jugular vein cannulation (PE-10 polyethylene tube filled with heaprin, 1000 iu/mL in normal saline) and tracheostomy were performed. The animals were put in a body box (anesthetized small animal body box, Buxco, USA) in a supine position. Gallamine triethiodide (4 mg/kg) was injected intravenously to induce paralysis and inhibit spontaneous breathing. A small animal ventilator set at a tidal volume 6 mL/kg and a respiratory rate of 120 times/minute was used to ventilate the animals by room air. All animals were stable without spontaneous breathing 5 minutes after gallamine was given. Pulmonary function tests, including flow volume loop, peak airway opening pressure (PaO), and gas flow to calculate total dynamic lung compliance, were examined at baseline. Thereafter, 25, 50, 75 and 100 μg/kg of acetylcholine were given intravenously at 30 minute intervals. Pulmonary function test were done 5 seconds after each dose of acetylcholine. Before each dose of acetylcholine the flow volume loop returned to baseline.
The PaO was measured by a Gould pressure transducer at the tracheostomy. PaO was defined as opening airway pressure during tidal breathing when a small animal ventilator was used (tidal volume 6 mL/kg, respiratory rate 120 times/minute). Respiratory flow was measured by a DP-45-14 differential pressure transducer.
For the maximal forced expiratory maneuver (MFEM), the lungs were inflated to total lung capacity (TLC, lung volume at PaO =35 cm H2O) 3 times; the inflation was regulated by a solenoid valve. At peak volume during the third inflation, the inflation valve was shut off and the other solenoid valve was used immediately for deflation. The deflation valve was connected to a 20 liter container with a pressure of −40 cm H2O (subatmospheric). The negative pressure produced maximal expiratory flow (Vmax). The changes in flow, volume and PaO were recorded by a 7P1, 7P10 preamplifier (Grass instrument Company, USA) from the body box and flow volume was stored in an oscilloscope (Hitachi Den Shi America Ltd, New York, USA). The parameters of the flow volume loop (FV loop), including peak flow (the maximal flow rate of the FV loop), MFEF75% (the flow rate at 75% TLC), MFEF50% (the flow rate at 50% TLC) and MFEF25% (the flow rate at 25% TLC) were recorded.
PD20MFEF50%Ach is the dose of acetylcholine required to produce a decrease in MFEF50% of 20% from baseline. PD20MFEF25%Ach is the dose required to produce a decrease in MFEF25% of 20% from baseline. PD50PaOAch is the dose required to produce an increase in PaO of 50% from baseline. PD50CdynAch is the dose required to produce a decrease in Cdyn of 50% from baseline. PD50RawAch is the dose required to produce an increase in Raw of 50% from baseline after acetylcholine was given.
TLC and residual volume (RV) were defined as the gas volume in the lungs at airway pressures of +30 cm H2O (TLC) and −10 cm H2O (RV) respectively. The lungs were deflated to RV by connecting one port of the respiratory valve to a 4-liter reservoir at −10 cm H2O; the valve was then turned, and the lungs were inflated from a syringe to TLC. The volume necessary to inflate the lungs from −10 to 30 cm H2O was read from the syringe and was recorded as the vital capacity (VC). A specific measurement sequence was used throughout the study. VC was determined three times and then TLC was measured three times each. The average valve of the three measurements was reported.
Lung volumes (such as TLC and FRC) were also measured using the gas (Neon) dilution principle. […]

ICR mice = assay: Acute toxicity test in ICR mice; type: in vivo; conditions: normal diet with 2% ratio, killed after 7 days
Description: The methodology used to carry out acute toxicity testing for this invention was as follows: ICR mice that had been fed on a normal diet with the above active compound included to constitute a 2% ratio were killed after 7 days in order to ascertain whether there was any evidence of toxicity.
B: Compound F8: This refers to F8 (for spectroscopic and structural data, see FIG. 2a, 2b, and 3). The molecular formula of compound F8 is C28H46O3. To confirm the potential applicability of the above fractions and to check for obvious toxicity or mutagenicity, Ames test and acute toxicity test were conducted on white mice (ICR-mice) using the F4 fraction or compound F8.

[2] = BALBc mice, baseline, 4 mg/Kg intraperitoneally 30 minutes before OA inhalation provocation, mean±SD

`CC(C)[C@@H](C)C=C[C@@H](C)[C@H]1CC[C@H]2C3=C[C@@H](O)[C@@]4(O)C[C@@H](O)CC[C@]4(C)[C@H]3CC[C@]12C` [F8, (24R)-ergosta-7,22-diene-3β, 5α, 6β,-triol] was tested, and the “percentage of baseline MFEF 50% TLC, Ach dose response” value ([1]; BALB/c mice, pretreated before OA inhalation provocation (group I) vs OA-treated (group II), Ach doses higher than 25 μg/kg) was “group II was significantly lower then group I”, the “Cdyn (total dynamic lung compliance)” value [1, 2] was 0.42 ± 0.04 mL/cmH2O and the “FEV 0.1” value [1, 2] was 1.26 ± 0.17 mL. For the same compound, the “MFEF 25%” value [1, 2] was 6.06 ± 1.59 mL/s, the “MFEF 50%” value [1, 2] was 14.58 ± 1.31 mL/s and the “MFEF 75%” value [1, 2] was 19.94 ± 2.53 mL/s. For the same compound, the “PaO (airway opening pressure at tidal breathing)” value [1, 2] was 3.8 ± 0.5 cmH2O, the Peak flow [1, 2] was 22.64 ± 2.07 mL/s and the TLC [1, 2] was 1.68 ± 0.25 mL. For the same compound, the Vital capacity [1, 2] was 1.29 ± 0.11 mL, the “baseline flow volume loop parameters (MFEF 50%TLC, MFEF 25%TLC, Cdyn) versus group II” value ([1]; mice, treatment study (administered after OA challenge), p<0.05) was “lower in group II when compared with group I and III” and the acute toxicity (ICR mice) was “no obvious evidence of toxicity or mutagenic properties”.
